Test results as given in ChEMBL document CHEMBL1201862, “PubChem BioAssay data set” (2004).
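Dose response: 5 concentrations. Exposure: 48 h. Format: 96-well plates. Endpoint: linear interpolation; highest concentration if not reached. GI50 is the concentration that inhibits growth by half.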 Active and inactive are the calls of the source. Rule as the data show it: active = GI50 up to about 1.1 µM and inactive = higher.

Tests used:
Assay in all cases: NCI anticancer screen, dose series, 48 h
UACC-62 = test system: UACC-62
HCT-15 = test system: HCT-15
A549 = test system: A549
HOP-92 = test system: HOP-92
Malme-3M = test system: Malme-3M
IGROV-1 = test system: IGROV-1
SK-OV-3 = test system: SK-OV-3
OVCAR-4 = test system: OVCAR-4
OVCAR-8 = test system: OVCAR-8
NCI-H23 = test system: NCI-H23
SW-620 = test system: SW-620
SK-MEL-28 = test system: SK-MEL-28
HCT-116 = test system: HCT-116
SK-MEL-5 = test system: SK-MEL-5
SF-539 = test system: SF-539
MCF7 = test system: MCF7
ACHN = test system: ACHN
SF-268 = test system: SF-268
BT-549 = test system: BT-549
EKVX = test system: EKVX
T47D = test system: T47D
SNB-19 = test system: SNB-19
SNB-75 = test system: SNB-75
NCI-H226 = test system: NCI-H226
M14 = test system: M14
RXF 393 = test system: RXF 393
CCRF-CEM = test system: CCRF-CEM
HCC 2998 = test system: HCC 2998
SF-295 = test system: SF-295
HOP-62 = test system: HOP-62
KM12 = test system: KM12
TK-10 = test system: TK-10
HL-60 = test system: HL-60
NCI-H460 = test system: NCI-H460
MOLT-4 = test system: MOLT-4
K562 = test system: K562
COLO 205 = test system: COLO 205
PC-3 = test system: PC-3
HT-29 = test system: HT-29
786-0 = test system: 786-0
SN12C = test system: SN12C
MDA-MB-231 = test system: MDA-MB-231
MDA-MB-435 = test system: MDA-MB-435
LOX IMVI = test system: LOX IMVI
UO-31 = test system: UO-31
Hs-578T = test system: Hs-578T
RPMI-8226 = test system: RPMI-8226
UACC-257 = test system: UACC-257
NCI-H522 = test system: NCI-H522
DU-145 = test system: DU-145
CAKI-1 = test system: CAKI-1
MDA-N = test system: MDA-N
NCI/ADR-RES = test system: NCI/ADR-RES
SR = test system: SR
U-251 = test system: U-251
SK-MEL-2 = test system: SK-MEL-2
OVCAR-3 = test system: OVCAR-3
OVCAR-5 = test system: OVCAR-5

Measured: GI50

O=C1NNC2(C(=O)N1)c1ccccc1-c1ccccc12
> 10 µM: HCT-15
inactive: UACC-62 > 10 µM | A549 > 10 µM | HOP-92 > 10 µM | Malme-3M > 10 µM | IGROV-1 > 10 µM | SK-OV-3 > 10 µM | OVCAR-4 > 10 µM | OVCAR-8 > 10 µM | NCI-H23 > 10 µM | SW-620 > 10 µM | SK-MEL-28 > 10 µM | HCT-116 > 10 µM | SK-MEL-5 > 10 µM | SF-539 > 10 µM | MCF7 > 10 µM | ACHN > 10 µM | SF-268 > 10 µM | BT-549 > 10 µM | EKVX 6.71 µM | T47D 2.55 µM | SNB-19 > 10 µM | SNB-75 > 10 µM | NCI-H226 > 10 µM | M14 > 10 µM | RXF 393 > 10 µM | CCRF-CEM > 10 µM | HCC 2998 > 10 µM | SF-295 > 10 µM | HOP-62 > 10 µM | KM12 > 10 µM | TK-10 > 10 µM | HL-60 > 10 µM | NCI-H460 > 10 µM | MOLT-4 > 10 µM | K562 > 10 µM | COLO 205 > 10 µM | PC-3 > 10 µM | HT-29 > 10 µM | 786-0 > 10 µM | SN12C > 10 µM | MDA-MB-231 > 10 µM | MDA-MB-435 > 10 µM | LOX IMVI > 10 µM | UO-31 > 10 µM | Hs-578T > 10 µM | RPMI-8226 > 10 µM | UACC-257 > 10 µM | NCI-H522 > 10 µM | DU-145 > 10 µM | CAKI-1 > 10 µM | MDA-N > 10 µM | NCI/ADR-RES > 10 µM | SR > 10 µM

CCOC(=O)C(NC(=O)c1cccc(Cl)c1)(Nc1cccc(C)c1)C(F)(F)F (centres undefined)
16.7 µM: HCT-15
inactive: UACC-62 14.5 µM | A549 32 µM | U-251 23.8 µM | HOP-92 15 µM | Malme-3M 16.6 µM | IGROV-1 12.8 µM | OVCAR-4 21.8 µM | OVCAR-8 21.2 µM | SW-620 16.4 µM | SK-MEL-28 17.4 µM | HCT-116 19.1 µM | SK-MEL-5 16.1 µM | SF-539 17.9 µM | MCF7 19 µM | ACHN 15.9 µM | SF-268 15.3 µM | BT-549 13 µM | EKVX 18.7 µM | T47D 19 µM | SNB-19 35.9 µM | SNB-75 12.4 µM | NCI-H226 14 µM | RXF 393 13 µM | CCRF-CEM 11.6 µM | HCC 2998 16.7 µM | HOP-62 17.7 µM | KM12 13.6 µM | SK-MEL-2 16.3 µM | TK-10 29.8 µM | HL-60 38.5 µM | NCI-H460 20.8 µM | MOLT-4 20.4 µM | K562 23.6 µM | COLO 205 20.1 µM | PC-3 16.5 µM | HT-29 13.3 µM | 786-0 23.3 µM | SN12C 21.2 µM | MDA-MB-231 19.4 µM | MDA-MB-435 19.6 µM | LOX IMVI 15.3 µM | UO-31 15.1 µM | Hs-578T 14.8 µM | RPMI-8226 18.3 µM | UACC-257 25.7 µM | NCI-H522 5.26 µM | DU-145 29.3 µM | CAKI-1 20.7 µM | MDA-N 17.5 µM | NCI/ADR-RES 15.9 µM | SR 28.7 µM

C[C@H](NC(=O)CNC(=O)CCCCCC(=O)NCC(=O)N[C@@H](C)C(=O)OCc1ccccc1)C(=O)OCc1ccccc1
inactive: UACC-62 > 100 µM | A549 > 100 µM | U-251 > 100 µM | OVCAR-3 > 100 µM | HOP-92 > 100 µM | Malme-3M > 100 µM | IGROV-1 > 100 µM | SK-OV-3 > 100 µM | OVCAR-4 > 100 µM | OVCAR-8 > 100 µM | NCI-H23 > 100 µM | SW-620 > 100 µM | SK-MEL-28 > 100 µM | HCT-116 > 100 µM | SF-539 > 100 µM | OVCAR-5 > 100 µM | MCF7 > 100 µM | ACHN > 100 µM | SF-268 > 100 µM | BT-549 > 100 µM | EKVX > 100 µM | T47D > 100 µM | SNB-19 > 100 µM | SNB-75 > 100 µM | NCI-H226 > 100 µM | M14 > 100 µM | RXF 393 > 100 µM | CCRF-CEM > 100 µM | HCC 2998 > 100 µM | SF-295 > 100 µM | HOP-62 > 100 µM | KM12 > 100 µM | SK-MEL-2 > 100 µM | TK-10 > 100 µM | MOLT-4 > 100 µM | K562 > 100 µM | COLO 205 > 100 µM | PC-3 > 100 µM | HT-29 > 100 µM | 786-0 > 100 µM | SN12C > 100 µM | MDA-MB-231 > 100 µM | MDA-MB-435 > 100 µM | LOX IMVI > 100 µM | Hs-578T > 100 µM | RPMI-8226 > 100 µM | UACC-257 > 100 µM | DU-145 > 100 µM | CAKI-1 > 100 µM | MDA-N > 100 µM | NCI/ADR-RES > 100 µM | SR > 100 µM
> 100 µM: HCT-15
